Earlier results, collected in US6653469B1, “Antibiotic purification method” (Murty Pharmaceuticals, Inc., priority 2002, dated 2003).

Columns and labels:
[1] = test system: heat shock protein 90 (Hsp90)
[2] = not given; remark: listed apart in the source

SMILES | binding to Hsp90 and effect on Hsp90 function [1] | stability to acid, base, or heat (acid, base, or heat in the presence of oxygen) | photolytic stability (aqueous and nonaqueous solutions) | solubility in acetone, benzene, and ethyl acetate ([2]; acetone, benzene, ethyl acetate) | solubility in alcohols and aliphatic chlorinated solvents such as chloroform ([2]; alcohols, chloroform) | solubility in water ([2]; water)
COC1CC(C)C(OC)c2cc(O)cc(c2O)NC(=O)/C(C)=C\C=C/C(C)C(OC(N)=O)/C(C)=C\C(C)C1OC (stereo not shown) [macbecin II] | bind specifically to Hsp90 | – | – | – | – | –
COC1=C2C[C@@H](C)C[C@H](OC)[C@H](O)[C@@H](C)/C=C(\C)[C@H](OC(N)=O)[C@@H](OC)/C=C\C=C(/C)C(=O)NC(=CC1=O)C2=O [geldanamycin] | – | decompose easily | undergoes photolytic degradation | less soluble | soluble | only slightly soluble
CO[C@H]1[C@@H](OC)C[C@H](C)[C@@H](OC)C2=CC(=O)C=C(NC(=O)/C(C)=C/C=C\[C@H](OC)[C@@H](OC(N)=O)/C(C)=C/[C@@H]1C)C2=O [herbimycin A] | bind specifically to Hsp90 | – | – | – | – | –
